Tests used:
Type in all cases: cell-based, human
[1] = system: GFX 251; assay: Colony outgrowth assay, patient-derived gastric tumour xenograft cells; design: key to Response to vinblastine / Response to BAL27862: BAL27862-sensitive tumour cells were those that had IC70 values in the low nanomolar range; BAL27862-resistant tumour cells had IC70 values >600 nanomolar; conditions: GFX 251, ex vivo colony outgrowth
Description: (§1) Single cell suspensions of patient-derived tumour xenografts (maintained in nude mice) were prepared. For colony outgrowth assays, cells were plated in soft agar in 24-well plates according to the assay introduced by Hamburger & Salmon (Primary bioassay of human tumour stem cells, Science, 1977, 197:461-463). 2×10^4-6×10^4 cells in 0.2 mL medium containing 0.4% agar were plated out on a bottom layer of 0.75% agar. Test compounds were applied in 0.2 mL culture medium. Every 24-well plate contained untreated controls and samples in triplicates. Cultures were incubated at 37° C. and 7.5% CO2 for 5-28 days. 24 hours prior to analysis, vital colonies were stained with a solution of metabolizable tetrazolium salt (Alley M C et al, Life Sci. 1982, 31:3071-3078) and were counted with an automatic image analysis system (Omnicon 3600, Biosys GmbH).
(§2) Relative drug effects were expressed by the ratio of the mean number of colonies in the treated wells and the control wells. IC70-values were determined by plotting compound concentrations versus relative colony counts.
(§3) Based on colony outgrowth assays, using tumour cells derived from 8 patient-derived tumours maintained as xenografts in mice, BAL27862-sensitive or resistant tumour cells were identified from gastric cancer, colorectal cancer, melanoma, and lung cancer (see Table 1). In this table, BAL27862-sensitive tumour cells were those that had IC70 values in the low nanomolar range, while BAL27862-resistant tumour cells had IC70 values >600 nanomolar. Paclitaxel and vinblastine data, using the same ex vivo assay, was available for 7 of the 8 tumour models. Of these 7 models, all were resistant to treatment with paclitaxel, while 6 were sensitive to treatment with vinblastine.

[2] = system: LXFE 211; assay: Colony outgrowth assay, patient-derived lung tumour xenograft cells; design: key to Response to BAL27862 / Response to vinblastine: BAL27862-sensitive tumour cells were those that had IC70 values in the low nanomolar range; BAL27862-resistant tumour cells had IC70 values >600 nanomolar; conditions: LXFE 211, ex vivo colony outgrowth
Description: as §1, §2, §3

[3] = system: MEXF 276; assay: Colony outgrowth assay, patient-derived melanoma xenograft cells; design: key to Response to vinblastine: BAL27862-sensitive tumour cells were those that had IC70 values in the low nanomolar range; BAL27862-resistant tumour cells had IC70 values >600 nanomolar; conditions: MEXF 276, ex vivo colony outgrowth
Description: as §1, §2, §3

[4] = system: CXF 243; assay: Colony outgrowth assay, patient-derived colorectal cancer xenograft cells; design: key to Response to vinblastine: BAL27862-sensitive tumour cells were those that had IC70 values in the low nanomolar range; BAL27862-resistant tumour cells had IC70 values >600 nanomolar; conditions: CXF 243, ex vivo colony outgrowth
Description: as §1, §2, §3

[5] = system: CXF 1103; assay: as above; design: key to Response to BAL27862: BAL27862-sensitive tumour cells were those that had IC70 values in the low nanomolar range; BAL27862-resistant tumour cells had IC70 values >600 nanomolar; conditions: CXF 1103, ex vivo colony outgrowth
Description: as §1, §2, §3

[6] = system: MEXF 1341; assay: Colony outgrowth assay, patient-derived melanoma xenograft cells; design: key to Response to BAL27862 / Response to vinblastine: BAL27862-sensitive tumour cells were those that had IC70 values in the low nanomolar range; BAL27862-resistant tumour cells had IC70 values >600 nanomolar; conditions: MEXF 1341, ex vivo colony outgrowth
Description: as §1, §2, §3

[7] = system: A549 NSCLC cells; assay: Immunofluorescent staining of microtubules (anti-alpha-tubulin) in cultured cells; conditions: for Effect on microtubule phenotype induced by BAL27862: 24 hours BAL27862 with the final 4 hours including the agent; for Microtubule phenotype of mitotic or G2/M arrested cells: 24 hours treatment
Description: (§4) A549 human non-small cell lung cancer (NSCLC, ATCC reference number CCL-185) cells, HeLa cervical cancer cells (ATCC reference number CCL-2) and SKBR3 breast carcinoma cells (ATCC reference number HTB-30) were seeded at densities of 50% on round microscope coverslips and cultured for 24 hours in RPMI-1640 containing 10% FCS (also referred to as FBS) at 37° C., 5% CO2. Compounds to be tested were dissolved in DMSO. The cell culture medium was replaced with medium containing the diluted compound(s) (paclitaxel, vinblastine, colchicine and nocodazole were purchased from Sigma-Aldrich) or vehicle. After treatment for the times indicated in the Brief Description of the Figures, coverslips were washed and cells were fixed in methanol/acetone (1:1) for 5 minutes at room temperature and subsequently incubated in blocking buffer (0.5% BSA and 0.1% TX-100 in PBS) for 30 minutes at room temperature. Specimens were then incubated with anti-alpha-tubulin antibody (Sigma, 1:2000) for 1 hour at room temperature in blocking buffer. After several washing steps cells were incubated with AlexaFluor-488 goat-anti-mouse IgG (Molecular Probes, 1:3000) for 1 hour at room temperature followed by several washing steps with blocking buffer. Specimens were then mounted with ProLong Gold antifade (Molecular Probes), sealed with nail polish and examined with a Leica immunofluorescence microscope. Images were captured with a cooled CCD-camera and processed by ImageJ software.

[8] = system: GFX 97; assay: Colony outgrowth assay, patient-derived gastric tumour xenograft cells; design: key to Response to vinblastine: BAL27862-sensitive tumour cells were those that had IC70 values in the low nanomolar range; BAL27862-resistant tumour cells had IC70 values >600 nanomolar; conditions: GFX 97, ex vivo colony outgrowth
Description: as §1, §2, §3

[9] = system: LXFE 397; assay: Colony outgrowth assay, patient-derived lung tumour xenograft cells; conditions: LXFE 397, ex vivo colony outgrowth
Description: as §1, §2
Based on colony outgrowth assays, using tumour cells derived from 8 patient-derived tumours maintained as xenografts in mice, BAL27862-sensitive or resistant tumour cells were identified from gastric cancer, colorectal cancer, melanoma, and lung cancer (see Table 1). […]

[10] = system: SKBR3 breast cancer cells; assay: Immunofluorescent staining of microtubules (anti-alpha-tubulin) in cultured cells; conditions: SKBR3, 50 nM, 24 hours treatment
Description: as §4

[11] = system: HeLa cervical cancer cells; assay: as above; conditions: 50 nM, 24 hours treatment
Description: as §4

CC[C@]1(O)C[C@@H]2CN(CCc3c([nH]c4ccccc34)[C@@](C(=O)OC)(c3cc4c(cc3OC)N(C)[C@H]3[C@@](O)(C(=O)OC)[C@H](OC(C)=O)[C@]5(CC)C=CCN6CC[C@]43[C@@H]65)C2)C1 [vinblastine, reference compound]
Response to vinblastine [1]: sensitive
Response to vinblastine [2]: sensitive
Response to vinblastine [3]: sensitive
Response to vinblastine [4]: sensitive
Response to vinblastine [5]: resistant (BAL27862-resistant tumour cells had IC70 values >600 nanomolar)
Response to vinblastine [6]: sensitive
Effect on microtubule phenotype induced by BAL27862 ([7]; A549): no impact
Response to vinblastine [8]: sensitive

Nc1ccc(C(=O)Cn2c(-c3nonc3N)nc3ccccc32)cc1 [Compound B, 2-[2-(4-Amino-furazan-3-yl)-benzoimidazol-1-yl]-1-(4-amino-phenyl)-ethanone]
Microtubule phenotype of mitotic or G2/M arrested cells ([7]; A549, 80 nM): dot-like structures

COc1cc2c(c(OC)c1OC)-c1ccc(OC)c(=O)cc1[C@@H](NC(C)=O)CC2 [colchicine, reference compound]
Effect on microtubule phenotype induced by BAL27862 ([7]; A549): no impact

CC(=O)O[C@H]1C(=O)[C@@]2(C)[C@H]([C@H](OC(=O)c3ccccc3)[C@]3(O)C[C@H](OC(=O)[C@H](O)[C@@H](NC(=O)c4ccccc4)c4ccccc4)C(C)=C1C3(C)C)[C@]1(OC(C)=O)CO[C@@H]1C[C@@H]2O [paclitaxel, reference compound]
Response to paclitaxel [1]: resistant (BAL27862-resistant tumour cells had IC70 values >600 nanomolar)
Response to paclitaxel [2]: resistant (BAL27862-resistant tumour cells had IC70 values >600 nanomolar)
Response to paclitaxel [3]: resistant (BAL27862-resistant tumour cells had IC70 values >600 nanomolar)
Response to paclitaxel [4]: resistant (BAL27862-resistant tumour cells had IC70 values >600 nanomolar)
Response to paclitaxel [5]: resistant (BAL27862-resistant tumour cells had IC70 values >600 nanomolar)
Response to paclitaxel [6]: resistant (BAL27862-resistant tumour cells had IC70 values >600 nanomolar)
Effect on microtubule phenotype induced by BAL27862 ([7]; A549): no impact
Response to paclitaxel [8]: resistant (BAL27862-resistant tumour cells had IC70 values >600 nanomolar)

N#CCCNc1nonc1-c1nc2ccccc2n1CC(=O)c1ccc(N)cc1 [BAL27862, 3-(4-{1-[2-(4-Amino-phenyl)-2-oxo-ethyl]-1H-benzoimidazol-2-yl}-furazan-3-ylamino)-propionitrile]
IC70 BAL27862 [1]: 0.485 µM
Response to BAL27862 [1]: sensitive
IC70 BAL27862 [2]: 0.021 µM
Response to BAL27862 [2]: sensitive
IC70 BAL27862 [3]: >3.5 µM
Response to BAL27862 [3]: resistant (BAL27862-resistant tumour cells had IC70 values >600 nanomolar)
IC70 BAL27862 [4]: 0.696 µM
Response to BAL27862 [4]: resistant (BAL27862-resistant tumour cells had IC70 values >600 nanomolar)
IC70 BAL27862 [5]: 0.022 µM
Response to BAL27862 [5]: sensitive
IC70 BAL27862 [9]: >3.5 µM
Response to BAL27862 [9]: resistant (BAL27862-resistant tumour cells had IC70 values >600 nanomolar)
IC70 BAL27862 [6]: 0.025 µM
Response to BAL27862 [6]: sensitive
Microtubule phenotype of mitotic or G2/M arrested cells [10]: dot-like structures
Microtubule phenotype of mitotic or G2/M arrested cells ([7]; A549, 50 nM): dot-like structures
Effect on microtubule phenotype induced by conventional microtubule targeting agents ([7]; A549, 24 hours vinblastine, colchicine, paclitaxel or nocodazole with the final 4 hours including BAL27862): disruption of the microtubule structures
Microtubule phenotype of mitotic or G2/M arrested cells [11]: dot-like structures
IC70 BAL27862 [8]: >3.5 µM
Response to BAL27862 [8]: resistant (BAL27862-resistant tumour cells had IC70 values >600 nanomolar)

COC(=O)Nc1nc2ccc(C(=O)c3cccs3)cc2[nH]1 [nocodazole, reference compound]
Effect on microtubule phenotype induced by BAL27862 ([7]; A549): no impact

N#CCCNc1nonc1-c1nc2ccccc2n1CC(=O)c1ccc(N)nc1 [Compound C, 3-(4-{1-[2-(6-Amino-pyridin-3-yl)-2-oxo-ethyl]-1H-benzoimidazol-2-yl}-furazan-3-ylamino)-propionitrile]
Microtubule phenotype of mitotic or G2/M arrested cells ([7]; A549, 20 nM): dot-like structures

Reference: US10724072B2, “Use of phospho-Akt as a biomarker of drug response” (Basilea Pharmaceutica AG, priority 2011, dated 2020)
